Tests used:
2B4.11 cells = experiment: T-cell activation with H57-597 antibody (TCRβ chain crosslinking), IL-2 production; type: cell-based; conditions: H57-597 0.5 μg/mL with LK cells; 50 μM; relative to DMSO control; ±SD
Protocol: To analyse the mode of action of C1, T-cells were activated using 2C11-145 and H57-597 antibodies. The H57-597 antibody is directed against the TCRβ chain, and when administered at sub-optimal doses in conjunction with accessory cells (LK35.2), is capable of activating T cells. […] C1 was added to give a final reaction volume of 250 μL at 50 μM and 0.5% DMSO.

Wistar rats = experiment: Adjuvant-induced arthritis model; type: in vivo; conditions: given subcutaneously, four daily injections of 6 mg at onset of arthritis
[1] = Surface plasmon resonance binding to DMPG liposomes; conditions: SPR, L1 sensor chip, 50 μM, 25° C.
Protocol: Model membranes composed of zwitterionic and anionic phospholipids were prepared as previously described (Bender et al., 2004). Briefly, DMPC and DMPG were dissolved in dry chloroform and chloroform/methanol (2:1) respectively to give 10 mg/ml solutions. […] The solution was sonicated in an ultrasonic bath for 20 min. Eight cycles of freeze/thawing was followed by extrusion through polycarbonate filters, first 100 nm (21 times) then 50 nm pore diameter (21 times), using a Lipofast apparatus (Avestin, Ottawa, Canada) and SUVs were used immediately. SPR was carried out on a BIAcore 2000 instrument using Pioneer Sensor Chip L1 and HEPES (HBS-N, Biacore, Upssala, Sweden) as running buffer. The chip surface was cleaned with 40 mM octyl glycoside (30 μl, 10 μl/min) followed liposomes (SUV) (100 μl, 5 μl/min). 10 mM NaOH (40 μl, 10 μl/min) removed any multilamellar vesicles from the surface before injecting the lipopeptide solutions (100 μl, 5 μl/min). The dissociation stage was 1200 sec. […] All SPR experiments were run at 25° C. and all analyses were performed using the BIAevaluation software (Biacore, Uppsala, Sweden). Lipopeptide binding was expressed as the difference in signal between points before sample injection and after dissociation.

[2] = tested on: allergic mice (OVA model); type: in vivo; conditions: 200 μg subcutaneous; compared to historical OVA/OVA mice
Protocol: The effect on the inflammatory response of the 200 μg dose and subcutaneous route of administration of cyclic C1 peptide determined in Example 8 was tested with the OVA (ovalbumin) model (Temelkovski, et al. (1998); Foster, et al. (2000); Asquith et al (2008)) according to the following study design. At the endpoint mice were euthanased and BALF was obtained by cannulating the trachea and flushing the airways with two 0.8 ml volumes of Hank's Balanced Salt Solution (HBSS). Recovered cells were treated with erythrocyte lysis buffer, cytospins prepared and stained with May-Grunwald Giemsa and differential leukocyte counts performed based on morphological criteria (min 200 cells counted/slide). Statistical analysis was performed using a student's unpaired t-test. Results were compared to historical data.

CC(C)C[C@@H]1NC(=O)[C@@H](CC(C)C)NC(=O)[C@H](CCCNC(=N)N)NC(=O)[C@@H](CC(C)C)NC(=O)CNC(=O)[C@@H](C(C)C)NC(=O)[C@H](CCCCN)NC(=O)[C@@H](CC(C)C)NC(=O)[C@H](CC(C)C)NC(=O)[C@@H](CC(C)C)NC1=O [C1, LDRLDLLDLLDKVDG]
IL-2 production (2B4.11 cells): 54.02%+/−9.32 | effect in reducing inflammation (total foot swelling) (Wistar rats): comparable effect to cyclosporin | binding to DMPG (anionic) liposomes [1]: bound much stronger | eosinophils in BALF [2]: decrease | macrophages in BALF [2]: significant reduction | total inflammatory cells in BALF [2]: reduction

From patent publication US20120077732A1, “CYCLIC PEPTIDES AND USES THEREOF” (SYDNEY WEST AREA HEALTH SERVICE, priority 2008, published 2012)
